In patent US7615651B2, “Diaryl, dipyridinyl and aryl-pyridinyl derivatives and uses thereof” (Pfizer Inc., priority 2006, dated 2009):
Like-named read-outs stand apart in the source and are kept apart here.

Key:
Format in all cases: biochemical
opioid receptor delta = target: T1, opioid receptor delta (Homo sapiens, UniProt P41143); experiment: GTPγ[35S] binding assay, antagonism of BW-373U86
T1 construct: expressed in transfected cells
Method: (§1) Membranes were prepared from cells as described (Bass et al, 1996). GTPγ[5S] binding assays were performed in a 96 well FlashPlate™ format in duplicate using […] GTPγ[^35S] and 5 μg membrane per well in assay buffer composed of 50 mM Tris HCl, pH 7.4, 5 mM MgCl2, 1 mM EDTA, 100 mM NaCl, 30 μM GDP, 0.1% bovine serum albumin and the following protease inhibitors: 100 μg/ml bacitracin, 100 μg/ml benzamidine, 5 μg/ml aprotinin, 5 μg/ml leupeptin. The assay mix was then incubated at 30° C. with increasing concentrations of antagonist (10^−10 M to 10^−5 M) for 10 minutes and challenged with the agonists BW-373U86 (1 nM), dynorphin-A (10 nM), […] (1 μM) for opioid receptors delta, kappa, and mu, respectively. The assays were performed at 30° C. for one hour. The FlashPlates were then centrifuged at 2000×g for 10 minutes. Stimulation of GTPγ[^35S] binding was then quantified using a Wallac Microbeta and Ki calculations were done using Prism™ by Graphpad.

opioid receptor mu = target: T2, opioid receptor mu (Homo sapiens, UniProt P35372); experiment: GTPγ[35S] binding assay, antagonism of endorphin
T2 construct: expressed in transfected cells
Method: as §1

opioid receptor kappa = target: T3, opioid receptor kappa (Homo sapiens, UniProt P41145); experiment: GTPγ[35S] binding assay, antagonism of dynorphin-A
T3 construct: expressed in transfected cells
Method: as §1

[1] = average Ki, antagonism of BW-373U86 (1 nM) at delta opioid receptor membranes, read-out: Delta functional Ki (GTPγ[35S] binding)
[2] = average Ki, antagonism of endorphin (1 μM) at mu opioid receptor membranes, read-out: Mu functional Ki (GTPγ[35S] binding)
[3] = average Ki, antagonism of dynorphin-A (10 nM) at kappa opioid receptor membranes, read-out: Kappa functional Ki (GTPγ[35S] binding)
[4] = read-out: Delta functional Ki (GTPγ[35S] binding)
[5] = read-out: Mu functional Ki (GTPγ[35S] binding)
[6] = read-out: Kappa functional Ki (GTPγ[35S] binding)
[7] = read-out: Delta functional (GTPγ[35S] binding Ki)
[8] = read-out: Mu functional (GTPγ[35S] binding Ki)
[9] = read-out: Kappa functional (GTPγ[35S] binding Ki)
[10] = average Ki, antagonism of BW-373U86 (1 nM) stimulated GTPγ[35S] binding, delta opioid receptor membranes, read-out: Delta functional (GTPγ[35S] binding Ki)
[11] = average Ki, antagonism of endorphin (1 μM) stimulated GTPγ[35S] binding, mu opioid receptor membranes, read-out: Mu functional (GTPγ[35S] binding Ki)
[12] = average Ki, antagonism of dynorphin-A (10 nM) stimulated GTPγ[35S] binding, kappa opioid receptor membranes, read-out: Kappa functional (GTPγ[35S] binding Ki)

T2 sequence (P35372 whole entry): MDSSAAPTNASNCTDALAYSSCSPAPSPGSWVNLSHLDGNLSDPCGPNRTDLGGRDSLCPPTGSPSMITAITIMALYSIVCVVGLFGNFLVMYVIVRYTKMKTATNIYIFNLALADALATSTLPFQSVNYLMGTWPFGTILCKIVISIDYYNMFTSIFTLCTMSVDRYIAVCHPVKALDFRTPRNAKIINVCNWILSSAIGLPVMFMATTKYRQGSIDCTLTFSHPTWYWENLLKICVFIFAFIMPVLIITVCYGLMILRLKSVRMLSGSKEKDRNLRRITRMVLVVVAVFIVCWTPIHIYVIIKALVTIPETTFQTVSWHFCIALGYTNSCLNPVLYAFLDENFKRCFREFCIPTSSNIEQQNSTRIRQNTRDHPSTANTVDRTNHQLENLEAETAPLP
T1 sequence (P41143 whole entry): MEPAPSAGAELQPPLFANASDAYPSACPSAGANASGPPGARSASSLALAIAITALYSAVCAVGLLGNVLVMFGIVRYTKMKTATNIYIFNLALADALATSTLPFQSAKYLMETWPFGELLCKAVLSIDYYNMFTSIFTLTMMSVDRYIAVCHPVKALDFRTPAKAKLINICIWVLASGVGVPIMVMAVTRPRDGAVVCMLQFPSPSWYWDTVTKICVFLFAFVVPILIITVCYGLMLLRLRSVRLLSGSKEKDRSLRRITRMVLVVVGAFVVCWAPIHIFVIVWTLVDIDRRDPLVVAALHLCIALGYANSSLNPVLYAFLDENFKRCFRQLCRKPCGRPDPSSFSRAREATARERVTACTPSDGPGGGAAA
T3 sequence (P41145 whole entry): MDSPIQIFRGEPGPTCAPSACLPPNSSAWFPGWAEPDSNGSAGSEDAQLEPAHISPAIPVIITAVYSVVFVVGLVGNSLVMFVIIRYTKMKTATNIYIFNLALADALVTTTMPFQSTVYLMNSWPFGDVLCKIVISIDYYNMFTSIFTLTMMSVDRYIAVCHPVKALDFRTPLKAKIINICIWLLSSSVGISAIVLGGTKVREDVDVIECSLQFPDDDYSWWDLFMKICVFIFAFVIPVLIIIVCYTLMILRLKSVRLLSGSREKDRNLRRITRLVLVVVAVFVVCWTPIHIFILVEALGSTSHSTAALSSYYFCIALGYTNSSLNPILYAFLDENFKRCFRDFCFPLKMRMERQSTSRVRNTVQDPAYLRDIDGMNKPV

Ki (opioid receptor delta; [4]) | Ki (opioid receptor mu; [5]) | Ki (opioid receptor kappa; [6]) | Ki (opioid receptor delta; [7]) | Ki (opioid receptor mu; [8]) | Ki (opioid receptor kappa; [9]) | SMILES | other results
18.8 nM | 35.1 nM | 8.48 nM | – | – | – | NC(=O)c1ccc(-c2ccc(CNC[C@H]3CCCO3)cc2Cl)c(Cl)c1 [4B-78] | –
17.6 nM | 5.25 nM | 27.2 nM | – | – | – | Cc1cc(C)n(CC(C)NCc2ccc(-c3cccc(C(N)=O)c3)c(Cl)c2)n1 (stereo not drawn) [6A-05] | –
– | – | – | 6.42 nM | 10.3 nM | 8.53 nM | Cc1cc(C(N)=O)ccc1-c1ccc(CNCCOC(C)C)cc1 [4B-06] | –
– | – | – | 21.3 nM | 6.27 nM | 7.69 nM | NC(=O)c1cccc(-c2ccc(CNC3CCc4ccccc43)cc2Cl)c1 (stereo not drawn) [4A-11] | –
3.58 nM | 6.4 nM | 2.56 nM | – | – | – | Cc1cc(CNCCC(C)C)ccc1-c1ccc(C(N)=O)cc1Cl [4B-62] | –
12.6 nM | 25.6 nM | 4.92 nM | – | – | – | CC(C)CCNCc1ccc(-c2ccc(C(N)=O)cc2Cl)c(F)c1 [4B-61] | –
543 nM | 549 nM | 80.6 nM | – | – | – | CC(C)CCNCc1ccc(-c2ccc(C(N)=O)cc2O)cc1 [4B-47] | –
– | – | – | 3.27 nM | 1.16 nM | 11 nM | NC(=O)c1cccc(-c2ccc(CNCCC3CCCCO3)cc2Cl)c1 (stereo not drawn) [4A-13] | –

The remaining lines, values behind:

SMILES | Ki (opioid receptor delta; [4]) | Ki (opioid receptor mu; [5]) | Ki (opioid receptor kappa; [6]) | Ki (opioid receptor delta; [7]) | Ki (opioid receptor mu; [8]) | Ki (opioid receptor kappa; [9]) | other results
Cn1c(=O)n(C)c2cc(CNCc3ccc(-c4cccc(C(N)=O)c4)c(Cl)c3)ccc21 [6A-04] | – | – | – | – | – | – | Ki (opioid receptor delta; [1]): 32.3 nM; Ki (opioid receptor mu; [2]): 15 nM; Ki (opioid receptor kappa; [3]): 805 nM
CC(C)CCNCc1ccc(-c2ccc(C(N)=O)cc2OCc2ccccc2)cc1 [4B-45] | 44.6 nM | 40.2 nM | 9.84 nM | – | – | – | –
Cc1cc(C(N)=O)ccc1-c1ccc(CNC2Cc3ccccc3C2)cn1 [1D-03] | – | – | – | 1.24 nM | 0.541 nM | 2.93 nM | –
Cc1cc(C(N)=O)ccc1-c1cc(F)c(CNC2Cc3ccccc3C2)cc1F [4B-75] | – | – | – | – | – | – | Ki (opioid receptor delta; [1]): 0.309 nM; Ki (opioid receptor mu; [2]): 0.069 nM; Ki (opioid receptor kappa; [3]): 1.27 nM
Cc1cc(C(N)=O)ccc1-c1ccc(CNC2CCOc3c(C)cccc32)cc1 (stereo not drawn) [4B-22] | – | – | – | 5.1 nM | 7.56 nM | 4.92 nM | –
CC(C)CCNCc1ccc(-c2cc(-c3ncn[nH]3)ccc2F)cc1 [7A-02] | – | – | – | – | – | – | Ki (opioid receptor delta; [1]): 5.26 nM; Ki (opioid receptor mu; [2]): 1.59 nM; Ki (opioid receptor kappa; [3]): 1.77 nM
COc1cc(-c2ccc(C(N)=O)cc2C)ccc1CNC1Cc2ccccc2C1 [4B-89] | 0.0895 nM | 0.0272 nM | 0.366 nM | – | – | – | –
CC(C)CCNCc1ccc(-c2cccc(-c3ncn[nH]3)c2)cc1 [7A-01] | 26.1 nM | 8.31 nM | 8.43 nM | – | – | – | –
Cc1cc(C(N)=O)ccc1-c1ccc(CNCCC(C)C)c(F)c1 [1B-08] | – | – | – | – | – | – | Ki (opioid receptor delta; [10]): 1.97 nM; Ki (opioid receptor mu; [11]): 3.24 nM; Ki (opioid receptor kappa; [12]): 1.89 nM
Cc1cc(C(N)=O)ccc1-c1ccc(CNC2CCc3ccccc32)cc1 (stereo not drawn) [4B-21] | – | – | – | 1.25 nM | 1.5 nM | 0.872 nM | –
Cc1cc(CNCCC2CCOCC2)ccc1-c1ccc(C(N)=O)cc1C [4B-70] | 1.04 nM | 2 nM | 2.48 nM | – | – | – | –
Cc1cc(C(N)=O)cnc1-c1ccc(CNCCC(C)C)cc1 [4C-04] | – | – | – | – | – | – | Ki (opioid receptor delta; [1]): 21.9 nM; Ki (opioid receptor mu; [2]): 10.5 nM; Ki (opioid receptor kappa; [3]): 7.23 nM
CC(C)CCNCc1ccc(-c2ccc(C(N)=O)cc2)cc1 [4B-01] | – | – | – | 14 nM | 175 nM | 88.6 nM | –
Cc1cc(C(N)=O)ccc1-c1ccc(CNC(C)c2ccc3ccccc3c2)cc1 (stereo not drawn) [4B-27] | – | – | – | 2.98 nM | 14.3 nM | 2.86 nM | –
Cc1cc(C(N)=O)ccc1-c1ccc(CNC(C)(C)c2cccc(Cl)c2)cc1 [4B-25] | – | – | – | 22.6 nM | 37.6 nM | 6.11 nM | –
Cc1cc(C(N)=O)ccc1-c1ccc(CNCCC(C)C)nc1 [1D-01] | – | – | – | – | – | – | Ki (opioid receptor delta; [10]): 11.7 nM; Ki (opioid receptor mu; [11]): 20.5 nM; Ki (opioid receptor kappa; [12]): 17.1 nM
Cc1cc(C(N)=O)cc(C)c1-c1ccc(CNC2Cc3ccccc3C2)cc1 [4B-32] | – | – | – | 0.0696 nM | 0.0492 nM | 0.14 nM | –
COCCNCc1c(F)cc(-c2ccc(C(N)=O)cc2C)cc1F [1B-09] | – | – | – | – | – | – | Ki (opioid receptor delta; [10]): 11 nM; Ki (opioid receptor mu; [11]): 70.5 nM; Ki (opioid receptor kappa; [12]): 17.9 nM
Cc1cc(C(N)=O)ccc1-c1ccc(CNCC2CCOCC2)c(F)c1 [4B-56] | 8.44 nM | 36.8 nM | 9.04 nM | – | – | – | –
COCCNCc1ccc(-c2cccc(C(N)=O)c2)c(Cl)c1 [6A-07] | – | – | – | – | – | – | Ki (opioid receptor delta; [1]): 0.0652 nM; Ki (opioid receptor mu; [2]): 78.4 nM; Ki (opioid receptor kappa; [3]): 58.1 nM
